From patent EP0461043A2, “Enantiomer separation by transesterification” (SEPRACOR, INC., priority 1990, dated 1991)
Where a name gives a salt, the structure may show the parent alone.

Assays:
Water solubility = assay type: physicochemical; conditions: for water solubility: charged water-soluble reactant esters (salts), values given in M; for solubility in water: esters, values given in mM
[1] = L form relative to D form; cited from earlier work

Compound | water solubility (Water solubility) | solubility in water (Water solubility) | other results
COc1ccc2cc(C(C)C(=O)OCC[N+](C)(C)C)ccc2c1 (racemic) [choline ester of 2-(6-methoxy-2-naphthyl) propanoic acid] | 1610 mM | – | –
CC(C)Cc1ccc(C(C)C(=O)O)cc1 (stereo not drawn) [Ibuprofen, 2-(p-isobutylphenyl) propanoic acid, reference compound] | – | – | water solubility at room temperature (Water solubility; acid forms, room temperature, varies with pH): single digit mM range
CC(C)NCC(O)COc1cccc2ccccc12 (stereo not drawn) [L form of the beta blocker propranolol, propranolol] | – | – | times more potent than the D form [1]: 100 times
COCCOC(=O)C(C)c1ccc(CC(C)C)cc1 (stereo not drawn) [methoxy-ethyl ester of Ibuprofen] | – | approximately 0.18 mM | –
CC(C)Cc1ccc(C(C)C(=O)OCC[N+](C)(C)C)cc1 (stereo not drawn) [methyl sulfate salt of N,N,N-trimethylammonium ethyl ester of Ibuprofen] | 2180 mM | – | –
CCCCCCCCOC(=O)C(C)Cl (stereo not drawn) [octyl ester of 2-chloropropanoic acid] | – | about 1.2 mM | –
